Legend:
[1] = Cytotoxicity, resazurin assay, summary over cell lines; type: cell-based; details: human, DLD-1 and WS1 cells (summary over the three lines); A549, DLD-1 and WS1; read-out: Cytotoxicity IC50 against human cell lines
Procedure: As the anticancer potential of microbial rhamnolipids has previously been reported,[16] we next sought to evaluate the in vitro cytotoxicity of our synthetic and natural glycolipids 1–6 against cancerous cell lines, i.e., human lung carcinoma (A549) and colorectal adenocarcinoma (DLD-1). The compounds were also tested against human normal skin fibroblasts (WS1) to estimate their selectivity towards cancer cells.
4. Experimental Procedures for Biological Evaluation and Surfactant Properties. […]
Cell Culture. Human lung carcinoma (A549), human colorectal adenocarcinoma (DLD-1), and human normal skin fibroblasts (WS1) cell lines were obtained from the American Type Culture Collection (ATCC). All cell lines were cultured in minimum essential medium containing Earle’s […]
salts and L-glutamine (Mediatech Cellgro, VA), to which were added 10% foetal bovine serum (Hyclone), vitamins (1×), penicillin (100 IU•mL-1), streptomycin (100 µg•mL−1), essential amino acids (1×), and sodium pyruvate (1×) (Mediatech Cellgro, VA). Cells were kept at 37 °C in a humidified environment containing 5% CO2.
Cytotoxicity Assay. Exponentially growing A549, DLD-1 or WS1 cells were plated in 96-well microplates (Costar, Corning Inc.) at a density of 5 × 10^3 cells per well in 100 µL of culture medium and were allowed to adhere for 16 h prior treatment. Increasing concentrations of each compound in biotech DMSO (Sigma-Aldrich) were then added (100 µL per well) and the cells were incubated for 48 h. The final concentration of DMSO in the culture medium was maintained at 0.5% (v/v) to avoid solvent toxicity. Cytotoxicity was assessed using resazurin9 on an automated 96-well Fluoroskan Ascent F1TM plate reader (Labsystems) using excitation and emission wavelengths of 530 and 590 nm, respectively. Fluorescence was proportional to the cellular metabolic activity in each well. Survival percentage was defined as the fluorescence in experimental wells as compared to that in control wells after subtraction of blank values. Each experiment was carried out three times in triplicate. IC50 results were expressed as means ± standard deviation. […]

tomato leaf disks = assay: Extracellular ROS production, luminol chemiluminescence; type: cell-based, Solanum lycopersicum; details: 100 μM, monitored over 720 min
Description: Bacterial rhamnolipids, such as compound 3, trigger the plant immune system, which can ultimately lead to plant protection against diseases caused by fungal and bacterial pathogens.[23] As ananatoside A (1) and ananatoside B (2) share structural similarities with rhamnolipid 3 and because they have been isolated from P. ananatis cultures, an emerging plant pathogen causing important agricultural damage worldwide,[81] we wanted to investigate whether these bacterial glycolipids, along with our unprecedented series of synthetic rhamnolactones, could be perceived by the plant immune system. We relied on measuring the extracellular content of reactive oxygen species (ROS) produced by tomato plants (Solanum lycopersicum) following treatment with the synthetic compounds, as an early and important marker of plant immunity.[20,22,82] Tomato leaves were challenged with synthetic glycolipids 1–6 at concentrations of 100 μM and the production of ROS was monitored over a 720 min time frame (Fig. 5).
Fig. 5 Extracellular reactive oxygen species (ROS) production following treatment of tomato leaf disks with ananatoside A (1), ananatoside B (2), RhaC10C10 (3), and related macrodilactone-containing rhamnolipids (4–6). Production of ROS was measured in tomato leaf disks following treatment at 100 μM with synthetic glycolipids (1–6). MeOH (0.5%) was used as a control. ROS production was measured using the chemiluminescence of luminol and photon counts were expressed as relative luminescence units (RLUs). Data are mean ± SEM (n = 6). Experiments were independently realized three times with similar results. […]
Plant Material and Growth Conditions. Tomato plants (Solanum lycopersicum L var. Ailsa craig, Scotland) were grown on soil in growth chamber with white fluorescent light [200 μmol•(m−2 s−1)], under 16 h/8 h light/dark regime, 60% relative humidity , and a temperature of 24 /20 °C during four weeks prior treatment. Arabidopsis thaliana plants (ecotype Col -0) were grown on soil in growth chambers with white fluorescent light (150 μmol m−2 s−1), under 12 h/12 h light/dark regime, 60% relative humidity, and a temperature of 20/20 °C during six weeks prior treatment.
Reactive Oxygen Species (ROS) Production. ROS assays were performed on four-week old tomato plants or six-week old Arabidopsis plants. Briefly, tomato leaf disks of 6 mm diameter or Arabidopsis petiole sections of 5 mm long were cut and placed in a 96-well plate (Optiplate TM-96 white, PerkinElmer) containing 150 µL of distilled H2O and then incubated at rt for 24 h to reduce the wounding response.11 The elicitation solution containing 0.2 µg•mL−1 luminol (A4685-5 g, Sigma), […] (P6782, Sigma) and the tested glycolipids (1, 2, 3, 4, 5α, 5β, 6α or 6β) at 100 μM was prepared. Methanol (0.5%) was used as negative control. Prior elicitation, the incubating distilled H2O was carefully removed from each well, avoiding any tissue damage or desiccation. Then, the elicitation solution (150 µL) was quickly added to each well containing a leaf disk or a petiole. Luminescence (relative light units, RLU) was measured every 4

Arabidopsis petiole = assay: as above; type: cell-based, Arabidopsis thaliana; details: 100 μM
Procedure: The only exception to this general trend was compound 5β. […]
ananatoside A (1) ananatoside B (2)
Figure S8. Extracellular ROS production following treatment of Arabidopsis petiole with […]
ananatoside A (1) or ananatoside B (2). Production of reactive oxygen species (ROS) was measured […]
in Arabidopsis petiole following treatment at 100 µM with ananatoside A (1) and ananatoside B […]
(2). Methanol (0.5%) was used as a control. ROS production was measured using the […]
chemiluminescence of luminol and photon counts were expressed as relative luminescence units […]
(RLUs). Data are mean ± SEM (n = 6). Experiments were realized three times with similar results.
(also on this page, place not known: S 8. ( 1) Luminescence (RLU) Luminescence (RLU)) […]
ranging between 200 µM and 1.56 µM. Triton X-100 was used as a positive hemolysis control.
The plate was then incubated at 37 °C with agitation at 150 rpm for 1 h and centrifuged at 1500 × g for 5 min. The supernatant was transferred in an empty plate and absorbance was measured at 540 nm using a Cytation3 microplate reader (Biotek). HC50 was calculated in comparison with the positive control. The experiment was performed in triplicate and repeated three times.
Plant Material and Growth Conditions. […]
Reactive Oxygen Species (ROS) Production. […] Luminescence (relative light units, RLU) was measured every 4

[2] = Dynamic light scattering (Zetasizer), hydrodynamic diameter of micelles; type: physicochemical; details: pH 7.0; concentration 80 μM
Description: In parallel to these experiments, we took advantage of dynamic light scattering (DLS) to evaluate the hydrodynamic diameter of biosurfactant micelles formed at concentrations above the CMC (Table 4).[79] DLS considers the intensity of light scattered by spherical particles, which prevents its application for highly polydisperse and non-spherical colloidal systems. […] Once again, due to its hydrophobicity, ananatoside A (1) was too polydisperse for conducting a proper distribution analysis, showing a Z-average value above 800 nm, which meant that the particles were aggregated in water at the tested concentration. Similar results were obtained for ananatoside A (1) when the DLS experiments were conducted in DMSO as the solvent.

| Structure (SMILES) | IC50 at 48 h [1] | Extracellular ROS production (tomato leaf disks) | Extracellular ROS production (perception by plants) (Arabidopsis petiole) | Z-Average (hydrodynamic diameter of micelles) [2] |
| --- | --- | --- | --- | --- |
| CCCCCCC[C@@H]1CC(=O)OC[C@H]2O[C@@H](O[C@H](CCCCCCC)CC(=O)O1)[C@H](O)[C@@H](O)[C@@H]2O [Compound 1, ananatoside A] | 50 to 58 µM | not | perceived by plants | – |
| CCCCCCC[C@H](CC(=O)O)OC(=O)C[C@@H](CCCCCCC)O[C@@H]1O[C@H](CO)[C@@H](O)[C@H](O)[C@H]1O [Compound 2, ananatoside B] | > 200 µM | less strong in amplitude, a similar pattern of ROS production | perceived by plants | 99.0 nm |

— article PMC8171317, “Total synthesis, isolation, surfactant properties, and biological evaluation of ananatosides and related macrodilactone-containing rhamnolipids” (Chemical Science, 2021)
